The results in this text go back to patent publication US9951226B2, “Compound based on cyanine scaffold for diagnosis sepsis by selectively detect glutathione” (EWHA UNIVERSITY—INDUSTRY COLLABORATION FOUNDATION, priority 2014, dated 2018).

In experiment [1] the test system is C57BL/6 mouse. The experiment can be described thus: Detection of glutathione in a mouse model with acetaminophen (APAP), IVIS imaging. Format: in vivo. How it is done:
200 μL of HEPES (4-(2-hydroxyethyl)piperazine-1-ethanesulfonic acid) buffer (10 mM, pH=7.4) containing 300 mg/kg of acetaminophen (APAP) known as a pain killer was administered to each C57BL/6 mouse (7˜8 weeks old, female, Jackson Laboratory) via intravenous injection. The said APAP works as a pain killer in vivo when administered at a proper dose, but when treated at over-dose, it can damage organs and also reduce in vivo glutathione. 20 minutes later, 200 μL of HEPES (4-(2-hydroxyethyl)piperazine-1-ethanesulfonic acid) buffer (10 mM, pH=7.4) containing 50 mM of the compound prepared in Example 2 was administered to the mouse via intravenous injection. 20 minutes later, the strength of fluorescence was observed by using the epifluorescence mode of In Vivo Imaging System (IVIS) spectrum (Caliper LifeSciences, USA) equipped with the filter having the wavelengths of 675 nm and 720 nm [the strength of fluorescence was measured by Living Image Software 4.3.1 (Caliper Life Sciences, USA)].

The nature of experiment [2]: Glutathione selectivity: absorption/fluorescence spectrum with various amino acids in HEPES buffer. It counts as biochemical. The following applies: 10 μM compound. As for the experimental part: 10 μM of the compound prepared in Example 2 was treated to HEPES (4-(2-hydroxyethyl)piperazine-1-ethanesulfonic acid) buffer (10 mM, pH=7.4) containing 10% DMSO and 100 μM of each glutathione, cysteine, homocysteine, dithiothreitol, phenylalanine, histidine, glutamine, lysine, glutamate, glycine, serine, alanine, arginine, methionine, and tyrosine, followed by observation of fluorescence spectrum at 25° C. by using RF-5310/PC fluorescence spectrometer (Shimada, 1 cm quartz cell).
An experiment was performed by the same manner as described in Experimental Example 3 except that the fragment 1 or the fragment 2 was used instead of the compound prepared in Example 2. […] To disclose the reason in relation to the above, the 3-dimensional structure of each of the compound of Example 1, the compound of Example 2, and the fragment 1 or the fragment 2, was investigated along with band-gap.
10 μM of the compound prepared in Example 3 and 100 μM of each endogenous amino acid (alanine, arginine, cysteine, glutamate, glycine, glutathione, homocysteine, histidine, lysine, methionine, serine, and tyrosine) were added to HEPES (4-(2-hydroxyethyl)piperazine-1-ethanesulfonic acid) buffer (10 mM, pH=7.4) containing 10% dimethylsulfoxide (DMSO), followed by observation of absorption spectrum presented through UV-vis sepctra (Scinco 3000 spectrophotometer, 1 cm quartz cell) at 25° C.
The following experiment was performed by the same manner as described in Experimental Example <15-1> except that fluorescence spectrum was observed by using RF-5310/PC fluorescence spectrometer (Shimada, 1 cm quartz cell) instead of observing absorption spectrum via UV-vis sepctra (Scinco 3000 spectrophotometer, 1 cm quartz cell) (λex=730 nm, λem=736 nm, slit:10/10 nm).

The subject of experiment [3] is neutrophils of peritoneal cells. The experiment can be described thus: Capacity of diagnosing sepsis: FACS of neutrophils of peritoneal cells from CLP sepsis mouse. Format: cell-based. The following applies: 8 hours, 10 μM compound. How it is done:
According to a reference (J Vis Exp. 2011 May 7; (51). pii: 2860. doi: 10.3791/2860), C57BL/6 mouse (7˜8 weeks old, female, Jackson Laboratory) was induced with sepsis by performing CLP (cecal ligation and puncture). 8 hours later, peritoneal cells were extracted from the mouse. The cells were centrifuged and reacted to the neutrophil marker Ly6G (eFluor®450, eBioscience, Cat No. 48-5931) and 10 μM of the compound prepared in Example 2 at room temperature. 25 minutes later, 1 mL of 3% fetal bovine serum (FBS) was added thereto, followed by centrifugation at 3000 rpm for 5 minutes to wash the cells. The cells were resuspended in […] of HEPES (4-(2-hydroxyethyl)piperazine-1-ethanesulfonic acid) buffer (10 mM, pH=7.4), followed by FACS (Fluorescence Activated Cell Sorting) using the data analysis software FlowJo to observe the peaks (The setting for Alexa flour 700 fluorescence was hired, BD FACSVerse™).

The subject of experiment [4] is RAW 264.7 cells. Put plainly: Changes of glutathione concentration in the presence of an oxidant (peroxynitrite), RAW 264.7 cells. It counts as cell-based. The following applies: for red fluorescence under confocal laser scanning microscope: 20 μM compound. As for the experimental part:
RAW 264.7 cells (macrophage cell line, Korea Cell Line Bank) were cultured in RPMI 1640 (Roswell Park Memorial Institute) supplemented with 10% heat-inactivated fetal bovine serum (FBS), 100 U/mL penicillin, and 100 U/mL streptomycin in a 37° C. 5% CO2 incubator.
RAW 264.7 cells displaying the characteristics of generating ROS (Reactive Oxygen Species) or RNS (Reactive Nitrogen Species) were treated with 1 μg/mL of lipopolysaccharide (LPS) for 20 minutes, 50 ng/mL of interferon-γ for 16 hours, and 20 μM of phorbol 12-myristate 13-acetate (PMA) for 20 minutes in order to induce the generation of endogenous feroxynitrite having the characteristics of an oxidant. Then, the cells were seeded in 35-mm glass bottomed dishes at the density of 3×10^5 cells/dish in 1640 medium. 24 hours later, the compound prepared in Example 2 was treated thereto at the concentration of 20 μM for 20 minutes. The cells were washed with DPBS (Dulbecco's Phosphate Buffered Saline) three times, followed by imaging with confocal laser scanning microscope (Fluoview 1200, Olympus, Japan). At this time, the emitting filter with the excitation wavelength of 635 nm and the band-path (BP) of 655˜755 nm was used.

For experiment [5], the system named is neutrophils. Put plainly: Capacity of diagnosing sepsis: bone marrow neutrophils infected with GFP tagged Pseudomonas Aeruginosa 01 (PA01). Format: cell-based, mouse. As for the experimental part: Neutrophils were extracted from the bone marrow of C57BL/6 mouse (7˜8 weeks old, female, Jackson Laboratory). The cells were infected with green fluorescent protein (GFP) tagged Pseudomonas Aeruginosa 01 (PA01) that is the causing bacteria of sepsis. 24 hours later, 10 μM of the compound prepared in Example 2 was added thereto, followed by reaction at 37° C. for 20 minutes. At this time, the emitting filter with the excitation wavelength of 635 nm and the band-path (BP) of 655˜755 nm was used.

In the case of `CCCN1/C(=C/C=C2\CCCC(/C=C/C3=[N+](CCC)c4ccccc4C3(C)C)=C2N2CCN(S(=O)(=O)c3cccc4c(N(C)C)cccc34)CC2)C(C)(C)c2ccccc21.[I-]` [Example 2, 2-((E)-2-((E)-3-((E)-2-(3,3-dimethyl-1-propylindolin-2-ylidene)ethylidene)-2-(4-(5-(dimethylamino)naphthalene-1-ylsulfonyl)piperazine-1-yl)cyclohex-1-enyl)binyl)-3,3-dimethyl-1-propyl-3H-indolium iodide], the “red fluorescence of the mouse, IVIS spectrum” value in experiment [1] (mouse treated with acetaminophen (APAP) 300 mg/kg together with the compound) is “red fluorescence was not observed”; in experiment [1] (mouse treated with the compound alone, intravenous injection, 20 minutes), “strong red fluorescence was observed”. Further, the “red fluorescence in liver, kidney, lung, and spleen, IVIS spectrum” value in experiment [1] (mouse treated with acetaminophen (APAP) together with the compound) was “red fluorescence was not observed”; in experiment [1] (mouse treated with the compound alone) it was “strong red fluorescence was observed”. The “fluorescence strength near 735 nm” value in experiment [2] (100 μM glutathione, HEPES pH 7.4, 10% DMSO, 25° C.) is on record as “strong fluorescence strength”. For the same compound, the “fluorescence strength at 736 nm” value in experiment [2] (100 μM other amino acids, HEPES pH 7.4, 10% DMSO) is recorded as “very weak fluorescence strength”. In experiment [2] (glutathione, cysteine, homocysteine, FIG. 5), the “fluorescence signal at around 736 nm over the time: selectivity among cysteine, homocysteine and glutathione” value is listed as “selectively reacted to glutathione alone”. Besides, the “glutathione level in neutrophils detected by the compound (FACS), sepsis mouse compared with normal mouse” value in experiment [3] was “reduced”. The “red fluorescence under confocal laser scanning microscope” value in experiment [4] (RAW 264.7 cells with induced peroxynitrite (LPS, interferon-γ, PMA)) is “red fluorescence was not observed”; in experiment [4] (RAW 264.7 cells, 20 minutes), “strong red fluorescence”. The “reaction to oxidized glutathione, glutathione disulfide (GSSG)” value in experiment [4] (RAW 264.7 cells, peroxynitrite) is “did not react”. Also, in experiment [5] (neutrophils infected with GFP tagged PA01, 10 μM compound), the “red fluorescence indicating glutathione level in the red fluorescence channel” value is “reduced”. Further, the “red fluorescence in the red fluorescent channel” value in experiment [5] (neutrophils not-infected with GFP tagged PA01, 10 μM compound) is “strong red fluorescence was detected”.
